We go through six molecules from patent US7902198B2, “Crystalline aripiprazole solvates” (Synthon BV, priority 2004, dated 2011).

For data set [1] the following is noted: as taught in WO 03/26659, cited from earlier work.
Data set [2] can be described thus: Solid-state stability upon storage at room temperature. The data set is classed as physicochemical. Particulars: hemi-ethanolate for at least one month, methanolate prolonged storage. From the text: In practice, the molar ratio between aripiprazole and ethanol moieties in the isolated product is from 1:0.4 to 1:0.6, preferably 1:0.45 to 1:0.6.
Data set [3] can be described thus: Solid-state stability towards thermal energy, milling and forced sieving. Particulars: for change of crystalline structure during milling: milling (Example 7: ball mill 1 minute, IR and XRPD).

Regarding `O=C1CCc2ccc(OCCCCN3CCN(c4cccc(Cl)c4Cl)CC3)cc2N1` [Anhydrous Form B, 7-[4-[4-(2,3-dichlorophenyl)-1-piperazinyl]butoxy]-3,4-dihydrocarbostyril], the water uptake entry in data set [1] (in 24 hours) was “less than 0.4%”. For `O=C1CCc2ccc(OCCCCN3CCN(c4cccc(Cl)c4Cl)CC3)cc2N1` [Aripiprazole hemi-ethanolate, 7-[4-[4-(2,3-dichlorophenyl)-1-piperazinyl]butoxy]-3,4-dihydrocarbostyril], the stability upon storage entry in data set [2] is recorded as “reasonably stable”. In data set [3], the “stability towards thermal energy, including milling” value is “rather unstable”.

As to `O=C1CCc2ccc(OCCCCN3CCN(c4cccc(Cl)c4Cl)CC3)cc2N1` [Example 5], the “effect of forced sieving on the crystal structure” value in data set [3] (pressed through a 100 μm sieve, IR, XRPD) is on record as “no detectable effect on the crystal structure”. With `O=C1CCc2ccc(OCCCCN3CCN(c4cccc(Cl)c4Cl)CC3)cc2N1` [Example 7], the “change of crystalline structure during milling” value in data set [3] is “crystal structure has not been changed”. Take `O=C1CCc2ccc(OCCCCN3CCN(c4cccc(Cl)c4Cl)CC3)cc2N1` [Type I aripiprazole, 7-[4-[4-(2,3-dichlorophenyl)-1-piperazinyl]butoxy]-3,4-dihydrocarbostyril]: the hygroscopicity entry in data set [1] is “significantly hygroscopic”. `O=C1CCc2ccc(OCCCCN3CCN(c4cccc(Cl)c4Cl)CC3)cc2N1` [aripiprazole methanolate, 7-[4-[4-(2,3-dichlorophenyl)-1-piperazinyl]butoxy]-3,4-dihydrocarbostyril]: the stability upon storage result in data set [2] is listed as “more stable upon prolonged storage at room temperature than the hemi-ethanolate”. In addition, the “change of crystalline structure during milling” value in data set [3] is reported as “does not change its crystalline structure”.
